Data taken from patent publication US20130345199A1, “1-[M-CARBOXAMIDO(HETERO)ARYL-METHYL]-PIPERIDINE-4-CARBOXAMIDE DERIVATIVES” (Actelion Pharmaceuticals Ltd., priority 2012, published 2013).

Each compound was assayed against T1, CXCR7 (Homo sapiens, UniProt P25106) (assay: PathHunter CHO-K1 CXCR7 b-arrestin assay (agonistic activity)). Conditions: PathHunter CHO-K1 CXCR7 b-arrestin cell line, 90 minutes at 37° C.
T1 construct: host or cells: CHO-K1 (PathHunter CXCR7 b-arrestin cell line, stably transfected)
T1 sequence (P25106 whole entry): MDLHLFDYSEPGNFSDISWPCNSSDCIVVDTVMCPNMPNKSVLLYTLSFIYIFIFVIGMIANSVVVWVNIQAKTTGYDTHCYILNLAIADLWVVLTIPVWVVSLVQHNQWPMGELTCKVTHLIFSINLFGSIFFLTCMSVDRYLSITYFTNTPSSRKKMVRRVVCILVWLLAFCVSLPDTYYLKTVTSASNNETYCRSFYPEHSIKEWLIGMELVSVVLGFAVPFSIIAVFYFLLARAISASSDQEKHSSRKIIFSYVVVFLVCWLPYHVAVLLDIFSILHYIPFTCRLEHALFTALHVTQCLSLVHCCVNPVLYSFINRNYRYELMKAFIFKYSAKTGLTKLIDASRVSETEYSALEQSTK
Type: cell-based
Protocol: The […] receptor and CXCR7 agonistic activities of the compounds of formula (I) are determined in accordance with the following experimental method.
The assay is using the PathHunter™ CHO-K1 CXCR7 b-arrestin cell line from DiscoverX. The system is based on the Enzyme Fragment Complementation Technology. Two complementing fragments of the b-galactosidase enzyme are expressed within stably transfected cells. The larger portion of b-gal, termed EA for Enzyme Acceptor, is fused to the C-terminus of b-arrestin 2. The smaller fragment, termed ProLink™ tag, is fused to CXCR7 at the C-terminus. Upon activation, b-arrestin is recruited which forces the interaction of ProLink and EA, allowing complementation of the two fragments of b-gal and the formation of a functional enzyme which is capable of hydrolysing the substrate and generating a chemiluminescent signal.
CHO-K1 CXCR7 b-arrestin cells are detached from culture dishes with a cell dissociation buffer (Invitrogen, #13151-014) and collected in growing medium (F12HAMS 90% (v/v)/FCS 10% (v/v), Penicilin/streptomycin 1% (v/v)). 5000 cells per well (in 20 μl) are seeded in a 384 well plate (white-walled, clear bottom; BD Falcon #353274). The plate is incubated at 37° C./5% CO2 for 24 hours. Medium is then replaced by […] (Invitrogen #31985) for 3 to 4 hours. Test compounds are dissolved at 10 mM in DMSO and serially diluted in DMSO to 200× of the final concentration for dose response curves. Compounds are then diluted 1:33.3 in HBSS1X. 5 μl/well of HBSS1X/20 mM HEPES/0.2% BSA are added to the assay plate followed by addition of 5 μl/well of diluted compounds. CXCL12 (Peprotech #300-28A) may be used as a reference agonist. The plate is incubated for 90 minutes at 37° C. 12 μl of detection reagent (Path Hunter Detection Kit, DiscoveRx, #93-0001) is transferred to the assay plate and to the plate is incubated for 1 hour at room temperature. Luminescent signal is read in a microplate reader (FLUOstar Optima, bmg). The calculated EC50 values may fluctuate depending on the daily cellular assay performance. Fluctuations of this kind are known to those skilled in the art.
Compound `O=C(Nc1cccc(CN2CCCC(C(=O)NCC3CC3)CC2)c1)c1cccc(C(F)(F)F)n1` (racemic) [Example 2.089] has an EC50 of 36 nM. `COc1cncc(C(=O)Nc2cccc(CN3CCC(C(=O)N(C)CC(C)C)CC3)c2)c1` [Example 4.015, N-{3-[4-(Isobutyl-methyl-carbamoyl)-piperidin-1-ylmethyl]-phenyl}-5-methoxy-nicotinamide] gave an EC50 of 19 nM. For `CCN(CC)C(=O)C1CCN(Cc2cccc(NC(=O)c3cccs3)c2)CC1` [Example 2.074], the EC50 was 70 nM. With `CC(C)(C)CCNC(=O)C1CCN(Cc2cccc(NC(=O)c3cccc(C(F)(F)F)n3)c2)CC1` [Example 2.082] the EC50 was 121 nM. For `Cc1cncc(C(=O)Nc2cccc(CN3CCC(C(=O)N4CCCC4)CC3)c2)c1` [Example 2.047], the EC50 was 67 nM. Work on `COCCNC(=O)C1CCN(Cc2cccc(NC(=O)c3ccc(Cl)cc3)c2)CC1` [Example 2.005] yielded an EC50 of 5 nM. Work on `CC(C)(C)NC(=O)C1CCN(Cc2cc(NC(=O)c3cccc(C(F)(F)F)n3)ccc2F)CC1` [Example 4.017, 6-Trifluoromethyl-pyridine-2-carboxylic acid [3-(4-tert-butylcarbamoyl-piperidin-1-ylmethyl)-4-fluoro-phenyl]-amide] yielded an EC50 of 2 nM. With `CC(C)(CO)NC(=O)C1CCN(Cc2cccc(NC(=O)c3cccc(C(F)(F)F)n3)c2)CC1` [Example 2.091] the EC50 was 6 nM. `CNC(=O)C1CCN(Cc2cccc(NC(=O)c3cccs3)c2)CC1` [Example 2.072] was tested, and the EC50 was 188 nM. For `Cc1cncc(C(=O)Nc2cccc(CN3CCC(C(=O)NC4CCCC4)CC3)c2)c1` [Example 2.042], the EC50 was 5 nM. With “N-[3-(4-Cyclopropylcarbamoyl-piperidin-1-ylmethyl)-phenyl]-6-methyl-nicotinamide [Example 1.202]” the EC50 was 145 nM. With `CC(C)(C)NC(=O)C1CCN(Cc2csc(NC(=O)c3ccc(F)cc3)c2)CC1` [Example 3.008, 1-[5-(4-Fluoro-benzoylamino)-thiophen-3-ylmethyl]-piperidine-4-carboxylic acid tert-butylamide] the EC50 was 3 nM. In the case of `Cc1cncc(C(=O)Nc2cccc(CN3CCC(C(=O)N4CCC(F)(F)CC4)CC3)c2)c1` [Example 2.049], the EC50 is reported as 300 nM. Work on `O=C(Nc1cccc(CN2CCC(C(=O)NC3Cc4ccccc4C3)CC2)c1)c1ccc(Cl)cc1` [Example 2.033] yielded an EC50 of 9 nM. For `CC(C)(C)[C@@H](CO)NC(=O)C1CCN(Cc2cccc(NC(=O)c3cccc(C(F)(F)F)n3)c2)CC1` [Example 2.067], the EC50 was 406 nM. Compound `CC(C)(C)NC(=O)C1(C)CCN(Cc2cccc(NC(=O)c3cccc(C(F)(F)F)n3)c2)CC1` [Example 4.011, 6-Trifluoromethyl-pyridine-2-carboxylic acid [3-(4-tert-butylcarbamoyl-4-methyl-piperidin-1-ylmethyl)-phenyl]-amide] has an EC50 of 13 nM. Compound `CC(C)(C)NC(=O)C1CCN(Cc2cccc(NC(=O)c3ccc(F)c[n+]3[O-])c2)CC1` [Example 4.007, 5-Fluoro-1-oxy-pyridine-2-carboxylic acid [3-(4-tert-butylcarbamoyl-piperidin-1-ylmethyl)-phenyl]-amide] has an EC50 of 3 nM. Work on `CCN(CC)C(=O)C1CCN(Cc2cccc(NC(=O)c3ccc(Cl)cc3)c2)CC1` [Example 2.009] yielded an EC50 of 1 nM. `CC(C)CCNC(=O)C1CCN(Cc2cccc(NC(=O)c3cccc(C(F)(F)F)n3)c2)CC1` [Example 2.081] gave an EC50 of 5 nM. `O=C(Nc1cccc(CN2CCC(C(=O)NCc3ccccc3)CC2)c1)c1ccc(Cl)cc1` [Example 2.035] gave an EC50 of 45 nM. `CC1(C(=O)NC2CCCCC2)CCN(Cc2cccc(NC(=O)c3cccc(C(F)(F)F)n3)c2)CC1` [Example 4.010, 6-Trifluoromethyl-pyridine-2-carboxylic acid [3-(4-cyclohexylcarbamoyl-4-methyl-piperidin-1-ylmethyl)-phenyl]-amide] was tested, and the EC50 was 57 nM. With `Cc1cncc(C(=O)Nc2cccc(CN3CCC(C(=O)NC4CCCC4)C3)c2)c1` (stereo not shown) [Example 2.062] the EC50 was 28 nM. Compound `O=C(Nc1cccc(CN2CCC(C(=O)NC3CC3)CC2)c1)c1ccc(Cl)cc1` [Example 2.006] has an EC50 of 2 nM. `CCC(C)(C)NC(=O)C1CCCN(Cc2cccc(NC(=O)c3cncc(C)c3)c2)CC1` (racemic) [Example 2.085] gave an EC50 of 68 nM. With `CC1CCC(NC(=O)C2CCN(Cc3cccc(NC(=O)c4cccc(C(F)(F)F)n4)c3)CC2)CC1` (stereo not shown) [Example 2.083] the EC50 was 3 nM. Work on “5-Chloro-N-[4-chloro-3-(4-cyclopentylcarbamoyl-piperidin-1-ylmethyl)-phenyl]-nicotinamide [Example 1.227]” yielded an EC50 of 0.6 nM. `CC(C)(C)NC(=O)C1(F)CCN(Cc2cccc(NC(=O)c3cccc(C(F)(F)F)n3)c2)CC1` [Example 4.009, 6-Trifluoromethyl-pyridine-2-carboxylic acid [3-(4-tert-butylcarbamoyl-4-fluoro-piperidin-1-ylmethyl)-phenyl]-amide] showed an EC50 of 20 nM. With `COc1ccc(CNC(=O)C2CCN(Cc3cccc(NC(=O)c4ccc(Cl)cc4)c3)CC2)cc1` [Example 2.030] the EC50 was 832 nM. For `CC(C)(C)NC(=O)C1CCN(Cc2csc(NC(=O)Cc3ccccc3Cl)c2)CC1` [Example 3.010, 1-{5-[2-(2-Chloro-phenyl)-acetylamino]-thiophen-3-ylmethyl}-piperidine-4-carboxylic acid tert-butylamide], the EC50 was 41 nM. `Cc1cncc(C(=O)Nc2cccc(CN3CCC(C(=O)N4CCC(C)(C)C4)CC3)c2)c1` [Example 2.061] showed an EC50 of 64 nM. `Cc1cncc(C(=O)Nc2cccc(CN3CCC(C(=O)NC4CCCCC4)C3)c2)c1` (stereo not shown) [Example 2.063] showed an EC50 of 92 nM. Compound `CC(C)(C)NC(=O)C1CCN(Cc2cc(NC(=O)c3ccc(F)cc3)cs2)CC1` [Example 3.009, 1-[4-(4-Fluoro-benzoylamino)-thiophen-2-ylmethyl]-piperidine-4-carboxylic acid tert-butylamide] has an EC50 of 4 nM. In the case of `CCNC(=O)C1CCN(Cc2cccc(NC(=O)c3cccc(C(F)(F)F)n3)c2)CC1` [Example 2.069], the EC50 is reported as 4 nM. `O=C(Nc1cccc(CN2CCC(C(=O)NC3(CO)CCCC3)CC2)c1)c1ccc(Cl)cc1` [Example 2.032] showed an EC50 of 5 nM. In the case of `CC(NC(=O)C1CCN(Cc2cccc(NC(=O)c3ccc(Cl)cc3)c2)CC1)c1cccc2ccccc12` (racemic) [Example 2.018], the EC50 is reported as 349 nM. With `Cc1cncc(C(=O)Nc2cccc(CN3CCC(C(=O)N4CCCCC4)CC3)c2)c1` [Example 2.046] the EC50 was 6 nM. In the case of “1-[3-(3-Fluoro-benzoylamino)-benzyl]-piperidine-4-carboxylic acid cyclohexylamide [Example 1.103]”, the EC50 is reported as 6 nM.
